pIC50: −log10 of the molar value. Read-outs that look alike come from different tables or passages of the source.
How the values were obtained:
[1] = target: T1, PRMT8 (Homo sapiens, UniProt Q9NR22); test: PRMT8 Biochemical Assay
T1 construct: Full-length human PRMT8 (NM_019854.4) isoform 1 transcript clone; made in house; host or cells: E. coli BL21(DE3) Gold
From the text: Peptide representative of human histone H4 residues 31-45 was synthesized with an N-terminal linker-affinity tag motif and a C-terminal amide cap by 21st Century Biochemicals. The peptide was purified by high-performance liquid chromatography (HPLC) to greater than 95% purity and confirmed by liquid chromatography mass spectrometry (LC-MS). The sequence was Biot-Ahx-[…]-amide (SEQ ID NO.:8).
The resulting construct encodes an N-terminal GST tag and a thrombin cleavage sequence
The column was washed with 50 mM phosphate buffer, 100 mM NaCl, 5% glycerol, 5 mM […], pH 7.8 and PRMT8 was eluted by 100 mM phosphate in the same buffer. Protein was concentrated and buffer was exchanged to 50 mM Tris, 300 mM NaCl, 10% glycerol, 5 mM 3-mercaptoethanol, pH 7.8 by ultrafiltration. The purity of recovered protein was 89%.
General Procedure for PRMT8 Enzyme Assays on Peptide Substrates.
The assays were all performed in a buffer consisting of 20 mM Bicine (pH=7.6), 1 mM TCEP, 0.005% BSG, and 0.002% Tween 20, prepared on the day of use. Compounds in 100% DMSO (1 ul) were spotted into a polypropylene 384-well V-bottom plates (Greiner) using a Platemate Plus outfitted with a 384-channel head (Thermo Scientific). DMSO (1 ul) was added to Columns 11, 12, 23, 24, rows A-H for the maximum signal control and 1 ul of SAH, a known product and inhibitor of PRMT8, was added to columns 11, 12, 23, 24, rows I-P for the minimum signal control. A cocktail (40 ul) containing the PRMT8 enzyme was added by Multidrop Combi (Thermo-Fisher). The compounds were allowed to incubate with PRMT8 for 30 min at room temperature, then a cocktail (10 ul) containing ^3H-SAM and peptide was added to initiate the reaction (final volume=51 ul). The final concentrations of the components were as follows: PRMT8 was 1.5 nM, ^3H-SAM was 50 nM, non-radiolabeled SAM was 550 nM, peptide was 150 nM, SAH in the minimum signal control wells was 1 mM, and the DMSO concentration was 2%. The assays were stopped by the addition of non-radiolabeled SAM (10 ul) to a final concentration of 400 uM, which dilutes the ^3H-SAM to a level where its incorporation into the peptide substrate is no longer detectable. 50 ul of the reaction in the 384-well polypropylene plate was then transferred to a 384-well Flashplate and the biotinylated peptides were allowed to bind to the streptavidin surface for at least 1 hour before being washed once with 0.1% Tween20 in a Biotek ELx405 plate washer. The plates were then read in a PerkinElmer TopCount plate reader to measure the quantity of ^3H-labeled peptide bound to the Flashplate surface, measured as disintegrations per minute (dpm) or alternatively, referred to as counts per minute (cpm).
Where dpm=disintegrations per minute, cmpd=signal in assay well, and min and max are the respective minimum and maximum signal controls.
Where top and bottom are the normally allowed to float, but may be fixed at 100 or 0 respectively in a 3-parameter fit. The Hill Coefficient normally allowed to float but may also be fixed at 1 in a 3-parameter fit. Y is the % inhibition and X is the compound concentration.

[2] = tested on: mono-methyl arginine in RKO cells; test: RKO Methylation Assay (In Cell Western); assay type: cell-based; conditions: Homo sapiens, 72 hours
From the text: RKO Methylation Assay RKO adherent cells were purchased from ATCC (American Type Culture Collection), Manassas, Va., USA. DMEM/Glutamax medium, penicillin-streptomycin, heat inactivated fetal bovine serum, 0.05% trypsin and D-PBS were purchased from Life Technologies, Grand Island, N.Y., USA. Odyssey blocking buffer, 800CW goat anti-rabbit IgG (H+L) antibody, and Licor Odyssey infrared scanner were purchased from Licor Biosciences, Lincoln, Nebr., USA. Mono-methyl arginine antibody was purchased from Cell Signaling Technology, Danvers, Mass., USA. Methanol was purchased from VWR, Franklin, Mass., USA. 10% Tween 20 was purchased from KPL, Inc., Gaithersburg, Md., USA. DRAQ5 was purchased from Biostatus Limited, Leicestershire, UK. RKO adherent cells were maintained in growth medium (DMEM/Glutamax medium supplemented with 10% v/v heat inactivated fetal bovine serum and 100 units/mL penicillin-streptomycin) and cultured at 37° C. under 5% CO2. Cell Treatment, in Cell Western (ICW) for Detection of Mono-Methyl Arginine and DNA Content. RKO cells were seeded in assay medium at a concentration of 20,000 cells per mL to a poly-D-lysine coated 384 well culture plate (BD Biosciences 356697) with 50 μL per well. Compound (100 nL) from a 96-well source plate was added directly to 384 well cell plate. Plates were incubated at 37° C., 5% CO2 for 72 hours. After three days of incubation, plates were brought to room temperature outside of the incubator for ten minutes and blotted on paper towels to remove cell media. 50 μL of ice cold 100% methanol was added directly to each well and incubated for 30 min at room temperature. After 30 min, plates were transferred to a Biotek EL406 plate washer and washed 2 times with 100 μL per well of wash buffer (1×PBS). Next 60 μL per well of Odyssey blocking buffer (Odyssey Buffer with 0.1% Tween 20 (v/v)) were added to each plate and incubated 1 hour at room temperature. Blocking buffer was removed and 20 μL per well of primary antibody was added (mono-methyl arginine diluted 1:200 in Odyssey buffer with 0.1% Tween 20 (v/v)) and plates were incubated overnight (16 hours) at 4° C. Plates were washed 5 times with 100 μL per well of wash buffer. Next 20 μL per well of secondary antibody was added (1:200 800CW goat anti-rabbit IgG (H+L) antibody, 1:1000 DRAQ5 (Biostatus limited) in Odyssey buffer with 0.1% Tween 20 (v/v)) and incubated for 1 hour at room temperature. The plates were washed 5 times with 100 μL per well wash buffer then 2 times with 100 μL per well of water. Plates were allowed to dry at room temperature then imaged on the Licor Odyssey machine which measures integrated intensity at 700 nm and 800 nm wavelengths. Both 700 and 800 channels were scanned. […] Each plate included fourteen control wells of DMSO only treatment (minimum activation) as well as fourteen control wells for maximum activation treated with 20 μM of a reference compound. The average of the ratio values for each control type was calculated and used to determine the percent activation for each test well in the plate. Reference compound was serially diluted three-fold in DMSO for a total of nine test concentrations, beginning at 20 μM. Percent activation was determined and EC30 curves were generated using triplicate

[3] = Table 2, biochemical evaluation, read-out: PRMT8 IC50 (class)
[4] = Table 2a, numerical, single experiment or average of multiple experiments, read-out: PRMT8 IC50
[5] = numerical, single experiment or average of multiple experiments, read-out: In Cell Western EC30
[6] = read-out: In Cell Western EC30 (class)

T1 sequence (Q9NR22 whole entry, canonical isoform): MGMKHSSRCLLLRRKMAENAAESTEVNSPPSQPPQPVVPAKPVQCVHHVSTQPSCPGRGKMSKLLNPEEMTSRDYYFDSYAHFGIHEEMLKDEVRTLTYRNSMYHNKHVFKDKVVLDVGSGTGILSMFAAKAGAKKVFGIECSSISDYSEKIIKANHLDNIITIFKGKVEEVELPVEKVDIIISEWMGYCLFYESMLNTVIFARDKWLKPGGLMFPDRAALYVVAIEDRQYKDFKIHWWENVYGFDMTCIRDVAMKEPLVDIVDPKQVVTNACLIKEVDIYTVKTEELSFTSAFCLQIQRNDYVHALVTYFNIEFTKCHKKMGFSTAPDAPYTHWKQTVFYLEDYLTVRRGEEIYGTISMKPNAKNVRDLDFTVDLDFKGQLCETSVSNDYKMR

Question: How did the pIC50 [1, 3] turn out when CN(CCN)Cc1ocnc1-c1ccc(C#N)cc1 [Compound 4, 4-(5-(((2-aminoethyl)(methyl)amino)methyl)oxazol-4-yl)benzonitrile] was run?
Answer: The pIC50 was 6.00 to 7.00.

Question: What about the pIC50 [1, 4] of the same compound?
Answer: The pIC50 was 6.29.

Question: And the EC30 [2, 5]?
Answer: Its EC30 is 1.41 µM.

Question: And the EC30 [2, 6]?
Answer: Its EC30 is at most 3 µM.

Question: How did the pIC50 [1, 3] turn out when CN(CCN)Cc1n[nH]nc1-c1ccc(C#N)cc1 [Compound 3, 4-(5-(((2-aminoethyl)(methyl)amino)methyl)-2H-1,2,3-triazol-4-yl)benzonitrile] was run?
Answer: Its pIC50 is 5.52 to 6.00.

Question: What about the pIC50 [1, 4] of the same compound?
Answer: The pIC50 was 5.81.

Question: What about the EC30 [2, 5] of the same compound?
Answer: Its EC30 is 18.6 µM.

Question: What about the EC30 [2, 6] of the same compound?
Answer: Its EC30 is at least 12 µM.

Question: CN(CCN)Cc1ncoc1-c1ccc(C#N)cc1 [Compound 1, 4-(4-(((2-aminoethyl)(methyl)amino)methyl)oxazol-5-yl)benzonitrile] was tested. Which pIC50 [1, 3] did it give?
Answer: The pIC50 was 5.00 to 5.52.

Question: And the pIC50 [1, 4]?
Answer: Its pIC50 is 5.73.

Question: What about the EC30 [2, 5] of the same compound?
Answer: Its EC30 is 14.2 µM.

Question: What about the EC30 [2, 6] of the same compound?
Answer: Its EC30 is at least 12 µM.

Question: With CN(CCN)Cc1[nH]cnc1-c1ccc(C#N)cc1 [Compound 10, 4-(5-(((2-aminoethyl)(methyl)amino)methyl)-1H-imidazol-4-yl)benzonitrile] as the compound, how does the pIC50 [1, 3] read?
Answer: Its pIC50 is 5.00 to 5.52.

Question: What about the pIC50 [1, 4] of the same compound?
Answer: Its pIC50 is 5.50.

Question: And the EC30 [2, 5]?
Answer: The EC30 was over 20 µM.

Question: And the EC30 [2, 6]?
Answer: Its EC30 is at least 12 µM.

Question: What does the source list for CN(CCN)Cc1cncn1-c1ccc(C#N)cc1 [Compound 6, 4-(5-(((2-aminoethyl)(methyl)amino)methyl)-1H-imidazol-1-yl)benzonitrile]?
Answer: pIC50 [1, 3]: 5.00 to 5.52; pIC50 [1, 4]: 5.09; EC30 [2, 5]: > 20 µM; EC30 [2, 6]: ≥ 12 µM

Question: CN(CCN)Cc1ccnn1-c1ccc(C#N)cc1 [Compound 2, 4-(5-(((2-aminoethyl)(methyl)amino)methyl)-1H-pyrazol-1-yl)benzonitrile] was tested. Which pIC50 [1, 3] did it give?
Answer: Its pIC50 is 5.52 to 6.00.

Question: What about the pIC50 [1, 4] of the same compound?
Answer: The pIC50 was 5.89.

Question: What about the EC30 [2, 5] of the same compound?
Answer: The EC30 was 15.1 µM.

Question: What about the EC30 [2, 6] of the same compound?
Answer: Its EC30 is at least 12 µM.

Question: With CN(CCN)Cc1ccnn1-c1ccc(Oc2ccccc2)cc1 [Compound 9] as the compound, how does the pIC50 [1, 3] read?
Answer: Its pIC50 is over 7.00.

Question: And the pIC50 [1, 4]?
Answer: The pIC50 was 7.14.

Question: What about the EC30 [2, 5] of the same compound?
Answer: Its EC30 is 2.31 µM.

Question: And the EC30 [2, 6]?
Answer: Its EC30 is at most 3 µM.

Question: Which results are given for CN(CCN)Cc1cnnn1-c1ccc(C#N)cc1 [Compound 5, 4-(5-(((2-aminoethyl)(methyl)amino)methyl)-1H-1,2,3-triazol-1-yl)benzonitrile]?
Answer: EC30 [2, 5]: > 20 µM; EC30 [2, 6]: ≥ 12 µM

Question: What does the source list for CC(C)Oc1ccc(-n2nccc2CN(C)CCN)cc1 [Compound 8, N^1-((1-(4-isopropoxyphenyl)-1H-pyrazol-5-yl)methyl)-N^1-methylethane-1,2-diamine]?
Answer: pIC50 [1, 3]: > 7.00; pIC50 [1, 4]: 7.05; EC30 [2, 5]: 1.63 µM; EC30 [2, 6]: ≤ 3 µM

Question: How did the pIC50 [1, 3] turn out when CN(CCN)Cc1oncc1-c1ccc(F)cc1 [Compound 11, N^1-((4-(4-fluorophenyl)isoxazol-5-yl)methyl)-N^1-methylethane-1,2-diamine] was run?
Answer: Its pIC50 is under 5.00.

Question: And the pIC50 [1, 4]?
Answer: The pIC50 was under 5.00.

Question: And the EC30 [2, 5]?
Answer: The EC30 was over 20 µM.

Question: And the EC30 [2, 6]?
Answer: Its EC30 is at least 12 µM.

Question: What does the source list for CN(CCN)Cc1nsnc1-c1ccc(C#N)cc1 [Compound 7, 4-(4-(((2-aminoethyl)(methyl)amino)methyl)-1,2,5-thiadiazol-3-yl)benzonitrile]?
Answer: pIC50 [1, 3]: 6.00 to 7.00; pIC50 [1, 4]: 6.35; EC30 [2, 5]: > 20 µM; EC30 [2, 6]: ≥ 12 µM
